Experiments:
Assay type in all cases: cell-based
[1] = test system: A control cell lines; test: MTT assay, A control cell lines (lung cancer cell)
From the text: Please refer to Table 1 and FIGS. 4A-4C. According to a MTT assay (Table 1), various cell viabilities of the A control cell lines can be obtained and illustrated in FIG. 4A while the compounds No. 2˜30 are used to treat A control cell lines, wherein A control cell lines are lung cancer cell.

[2] = test system: HEL299 fibroblast; test: MTT assay, HEL299 fibroblast
From the text: (§1) Please refer to FIG. 4C, various cell viabilities of the HEL299 cell lines can be obtained through the MTT assay while the compounds No. 1˜30 are used to treat HEL299 cell lines, wherein HEL299 cell lines are fibroblast.

[3] = MTT assay, HEL299 fibroblast; details: human
From the text: as §1

[4] = test system: A3 cell lines; test: MTT assay, A3 cell lines (lung cancer stem cell)
From the text: Please to FIG. 4B, various cell viabilities of the A3 cell lines can be obtained through the MTT assay and illustrated in FIG. 4B while the compounds No. 1˜30 are used to treat A3 cell lines, wherein A3 cell lines are lung cancer stem cell.

[5] = summary of MTT cell viabilities

## O=c1c2ccccc2sc2c(Cl)c(SCc3ccc(Br)cc3)ccc12 [No. 25, 3-(4-Bromobenzylthio)-4-chloro-9H-thioxanthen-9-one]
[1]
  cell viabilities of A control cell lines (MTT assay): 40.8%
[1]; [5]
  inhibition effect on A control cell line (in words): inhibition effect
[2]
  cytotoxicity effect on the normal fibroblast (in words): without the cytotoxicity effect
[3]
  viability: 79.3%
[4]
  cell viabilities of A3 cell lines (MTT assay): 61.5%
[4]; [5]
  inhibition effect on A3 cell line (in words): inhibition effect
